For orientation: viability means a per cent measure of how many cells are alive, often set against a control.

Consider one substance from patent US7994307B2, “RNAi modulation of the BCR-ABL fusion gene and uses thereof” (Alnylam Pharmaceuticals, Inc., priority 2004, dated 2011).

“Also recorded” adds a separate entry of the source.

One series has as its system K562 cells. In words: Viability/growth of K562 cells after lipofection with siRNA. Type of series: cell-based, human. On the procedure:
(§1) Survival Assay: Following the last siRNA treatment cells were seeded in 96 well plates and cultivated for another ˜48 hours. Cell survival was then measured by MTT assay as described (Van der Kuip H, et al., Blood. 2001, 98:1532)
For the transfection of siRNA molecules into the human K562 cells we used Lipofectamin™ 2000 (Invitrogen, Karlsruhe). 1.5 Mio. cells were plated in 1.5 ml RPMI/10% FCS w/o antibiotics into a 6 well plate. For each well 500 μl transfection solution was prepared, containing 8.4 μg siRNA and 21 μl Lipofectamin in OPTI-MEM I reduced serum medium (Gibco, Karlsruhe). The cells were incubated 5 hours with the transfection solution, then the medium was changed to RPMI/10% FCS complemented with Penicillin/Streptomycin. When treated several times, cells were counted ˜24 h following treatment, diluted to 1 Mio/ml and seeded again in a 6 well plate (1.5 ml cell suspension per well). Transfection was then repeated exactly as the day before.

The test system of a further series is p210Bcr-Abl (e14a2). In words: Western blot of Bcr-Abl protein in 32Dp210/e14a2 cells after siRNA electroporation. In kind it is cell-based, murine. The following applies: for Bcr-Abl protein levels: 32Dp210/e14a2 cells. On the procedure: Protein assay: Western blot analysis was performed ˜24 h following the last siRNA -treatment or ˜96 hours following transfection with the pSUPER siRNA-expression vector as described (Goetz A W, et al., Cancer Res. 2001, 61:7635)
Sequence of p210Bcr-Abl (e14a2) (P11274+P00519 fused): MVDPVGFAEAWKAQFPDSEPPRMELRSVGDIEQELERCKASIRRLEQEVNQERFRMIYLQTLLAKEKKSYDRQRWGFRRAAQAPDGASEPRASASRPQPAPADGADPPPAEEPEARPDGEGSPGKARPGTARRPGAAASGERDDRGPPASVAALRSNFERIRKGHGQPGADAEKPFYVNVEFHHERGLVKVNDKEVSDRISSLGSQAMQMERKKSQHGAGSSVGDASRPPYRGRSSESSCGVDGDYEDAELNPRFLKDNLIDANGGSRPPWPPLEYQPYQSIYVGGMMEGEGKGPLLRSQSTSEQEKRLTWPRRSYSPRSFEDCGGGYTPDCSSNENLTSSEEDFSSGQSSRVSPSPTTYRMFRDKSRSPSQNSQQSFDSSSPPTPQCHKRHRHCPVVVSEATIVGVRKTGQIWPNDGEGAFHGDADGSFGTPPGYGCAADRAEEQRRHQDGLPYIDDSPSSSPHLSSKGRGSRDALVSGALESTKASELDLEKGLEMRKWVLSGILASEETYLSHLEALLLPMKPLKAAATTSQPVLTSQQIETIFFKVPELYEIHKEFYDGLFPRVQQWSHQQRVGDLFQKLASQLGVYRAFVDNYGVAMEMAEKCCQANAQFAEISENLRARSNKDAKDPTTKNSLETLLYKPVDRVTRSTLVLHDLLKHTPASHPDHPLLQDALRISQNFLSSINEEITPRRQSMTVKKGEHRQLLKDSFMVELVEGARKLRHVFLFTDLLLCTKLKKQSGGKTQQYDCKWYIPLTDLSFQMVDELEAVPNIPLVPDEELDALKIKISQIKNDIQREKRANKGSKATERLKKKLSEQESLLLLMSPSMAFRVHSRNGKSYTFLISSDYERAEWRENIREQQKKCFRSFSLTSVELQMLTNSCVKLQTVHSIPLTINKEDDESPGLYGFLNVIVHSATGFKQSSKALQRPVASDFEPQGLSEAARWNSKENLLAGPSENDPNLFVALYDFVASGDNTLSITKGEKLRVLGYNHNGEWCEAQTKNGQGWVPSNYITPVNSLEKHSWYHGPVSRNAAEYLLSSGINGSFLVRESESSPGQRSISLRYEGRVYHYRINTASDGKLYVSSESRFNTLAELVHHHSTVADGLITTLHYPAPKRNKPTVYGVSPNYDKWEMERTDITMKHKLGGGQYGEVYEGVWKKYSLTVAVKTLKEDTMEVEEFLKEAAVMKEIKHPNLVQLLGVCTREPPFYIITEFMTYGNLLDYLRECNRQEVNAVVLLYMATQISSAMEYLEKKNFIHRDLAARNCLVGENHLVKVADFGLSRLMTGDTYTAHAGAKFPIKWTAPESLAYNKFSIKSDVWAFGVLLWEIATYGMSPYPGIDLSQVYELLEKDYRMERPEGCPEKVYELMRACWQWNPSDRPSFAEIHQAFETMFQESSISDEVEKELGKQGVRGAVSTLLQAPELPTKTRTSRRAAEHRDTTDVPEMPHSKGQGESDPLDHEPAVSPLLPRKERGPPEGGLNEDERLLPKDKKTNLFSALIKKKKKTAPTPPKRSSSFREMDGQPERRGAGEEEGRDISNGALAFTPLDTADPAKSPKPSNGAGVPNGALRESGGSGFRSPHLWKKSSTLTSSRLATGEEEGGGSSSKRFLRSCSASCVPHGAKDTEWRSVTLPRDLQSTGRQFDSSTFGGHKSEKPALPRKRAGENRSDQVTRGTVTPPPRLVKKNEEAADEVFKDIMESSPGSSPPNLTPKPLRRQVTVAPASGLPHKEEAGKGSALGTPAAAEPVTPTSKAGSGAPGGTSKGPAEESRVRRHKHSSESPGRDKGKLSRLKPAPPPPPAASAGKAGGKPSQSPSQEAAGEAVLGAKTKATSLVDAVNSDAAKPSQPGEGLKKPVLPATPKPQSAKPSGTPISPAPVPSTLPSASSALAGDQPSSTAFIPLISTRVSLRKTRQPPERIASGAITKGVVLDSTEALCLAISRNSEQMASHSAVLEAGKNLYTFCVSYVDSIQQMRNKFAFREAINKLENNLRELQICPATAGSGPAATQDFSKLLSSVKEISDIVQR
(§2) siRNA-transfection: siRNAs were transfected into the murine cell lines 32Dp210Bcr-Abl-e14a2, -e13a2, 32Dp190Bcr-Abl-e1a2 and the human leukemic cell line MEG-01 using electroporation. Cell density was adjusted to 2.5-5×10^6/ml in RPMI/10% FCS. 800 μl of this cell suspension were mixed with siRNA in a 4 mm electroporation cuvette. Cells were electroporated by means of an EasyJect electroporator (peqlab, Erlangen, Germany) using a single-pulse protocol (250 V, 1800 μF, 8.). This treatment was repeated in intervals of 24 hours as indicated.
(§3) In 32Dp210Bcr-Abl-e14a2, -e13a2 and 32Dp190Bcr-Abl-e1a2 inhibition of Bcr-Abl can be compensated by addition of exogenous growth factor to the medium. Therefor, recombinant murine IL-3, (1 ng/ml) was added to the growth medium during siRNA treatment of these cell lines. Following the last siRNA treatment cells were washed and factor deprived before starting the different examination procedures (Western blot/MTT).
We used three murine hematopoetic 32D cell lines expressing either p210Bcr-Abl (e14a2), p210Bcr-Abl (e13a2) or p190Bcr-Abl (e1a2) to study the effectiveness of siRNAs to silence each of these human Bcr-Abl fusion breakpoint variants. In addition, experiments were performed in human Ph+leukemia cells (K562, MEG-01). All siRNAs used were directed to breakpoints of the Bcr and Abl sequence of the respective Bcr-Abl mRNA. RNAi-efficiency was assayed via analysis of Bcr-Abl protein levels and by monitoring the biological effect using MTT viability assay.

Another series deals with 32Dp210/e14a2 cells. In words: MTT viability assay in 32Dp210/e14a2 cells after siRNA electroporation. Type of series: cell-based, murine. The procedure:
as §1, §2, §3

The next series relates to Bcr-Abl (e14a2). In words: Western blot of Bcr-Abl protein in primary CD34 positive cells of CML patients (e14a2). Type of series: cell-based, human. The following applies: two electroporations, compared to BAF8 or BAF16. On the procedure: FIG. 4: CD34 positive cells isolated from 3 newly diagnosed and untreated Philadelphia chromosome-positive CML patients in chronic phase and positive for bcr-abl-e14a2 by Ficoll-Hypaque density gradient centrifugation and affinity column purification were treated with siRNAs BAF7 (e14a2 specific, Patient 1), BAF8 (mismatch control, Patient 1), BAF12 (e14a2 specific, Patient 2+3), and BAF16 (e13a2 specific, Patient 2+3). Cells were diluted to a density of 2.5×10^6 in 800 μl growth medium, mixed with 12.8 μl of a 50 μM solution of the respective siRNA in a 4-mm electroporation cuvette, and electroporated using a single pulse protocol (250V, 1800 μF). This treatment was repeated after 24 hours, the cells were washed, incubated for another 24 hours, and harvested for western blot analysis. […] Additionally, BAF12 treatment compromised Bcr-Abl activity.
Sequence of Bcr-Abl (e14a2) (P11274+P00519 fused): as above
CD34 positive cells were isolated from 3 newly diagnosed and untreated Philadelphia chromosome-positive CML patients in chronic phase. Informed consent was obtained by the patients prior to collection of cells. Mononuclear cells were harvested by Ficoll-Hypaque density gradient centrifugation (Seromed, Berlin, Germany). CD34 positive cells were isolated using a stem cell isolation kit and a MACS column (Miltenyi Biotech, Bergisch Gladbach, Germany) according to manufacturer's instructions. […]

The test system of another series is M07p210/e14a2 cells. In words: Induction of apoptosis by imatinib mesylate in M07p210/e14a2 cells. In kind it is cell-based, human. The note with it: BAF7-treated.

On to “BAF7: siRNA duplex, sense SEQ ID No. 1, antisense SEQ ID No. 23, specific for Bcr-Abl-e14a2 (sense CAGAGUUCAAAAGCCCUUCAG; antisense CUGAAGGGCUUUUGAACUCUGCU; listed as RNA, chemistry not given here)”, for which the growth result in the series with K562 cells (K562, 48 hours following one single treatment, lipofectamin 2000) is “only a minimal growth reduction”. The viability in the series with K562 cells (K562, 48 hours following the third lipofection at intervals of 24 hours) is reported as 45%; in the series on 32Dp210/e14a2 cells (four treatments), “virtual loss of viability; also recorded: virtually complete loss of viability”. The Bcr-Abl protein levels result was “reduced the amount of Bcr-Abl protein to the detection limit; also recorded: almost complete disappearance of Bcr-Abl protein” in the series with p210Bcr-Abl (e14a2) (four consecutive treatments at intervals of 24 h); “notable reduction; also recorded: significant reduction” in the series on p210Bcr-Abl (e14a2) (single siRNA treatment, Western blot); “significant reduction” in the series on Bcr-Abl (e14a2). Also, in the series on p210Bcr-Abl (e14a2) (32Dp210Bcr-Abl (e14a2) cells, after one single treatment), the “recovery of Bcr-Abl protein levels” value is “quickly recovered to pre-treatment levels”. Besides, the “viability relative to electroporation control cells (EPC, 100%)” value in the series with 32Dp210/e14a2 cells (single treatment, MTT) was “approximately 59%”. In addition, the “viability relative to EPC” value in the series with 32Dp210/e14a2 cells (treated four times, MTT) is listed as ≤ 2.5%. The “induction of apoptosis by 0.05 μM imatinib mesylate in siRNA-treated cells” value in the series on M07p210/e14a2 cells is recorded as “significant induction of apoptosis”.
